This note sets out measurements from patent publication US20100323989A1, “PHARMACEUTICAL COMBINATIONS USEFUL FOR TREATING HCV” (Gilead Sciences, Inc., priority 2009, published 2010).

Data set [1] deals with 1b PI-luc replicon with NS3 protease mutation D168E. It counts as cell-based, HCV genotype 1b. The note with it: ratio of mutant EC50 to wild type EC50, NS3 D168E.
Data set [2] deals with HCV genotype 1b replicon cells (Huh-luc). Description: Combination study in Huh-luc replicon cells analysed with MacSynergy II. Format: cell-based. Particulars: Compound 1 in combination with Compound 2, MacSynergy II. On the procedure: (§1) HCV genotype 1b replicon cells (Huh-luc) were obtained from Reblikon (Mainz, Germany). The replicon in these cells is designated I389luc-ubi-neo/NS3-3′/ET and encodes a selectable resistance marker (neomycin phosphotransferase) as well as the firefly luciferase reporter gene. Huh-luc cells were maintained in Dulbecco's Modified Eagle's Medium (DMEM; GIBCO, Carlsbad, Calif.) supplemented with 10% fetal bovine serum (FBS; Hyclone, Logan, Utah) and 0.5 mg/mL of G-418 (GIBCO). Cells were passaged twice a week and maintained at subconfluent levels.
For each individual drug, the EC50 value was selected as the midpoint for the concentration range tested. Cells were incubated for three days and analyzed for luciferase expression as indicated above. For the combination study, two independent experiments were performed in triplicate.
The calculated volumes of surface deviations are expressed in nM2%. Per Prichard and Shipman, combination effects are defined as:
Highly synergistic if volumes >100 nM^2.
Slightly synergistic if volumes are >50 and ≦100 nM^2.
Additive if volumes are >−50 nM^2 and ≦50 nM^2.
Slightly antagonistic if volumes are >−100 nM^2 and ≦−50 nM^2.
Antagonistic if volumes are ≦−100 nM^2.
(In general: Replicon systems follow genome replication, usually without infectious particles.)

Data set [3] relates to 1b PI-luc replicon with NS3 protease mutation D168V. It counts as cell-based, HCV genotype 1b. Particulars: ratio of mutant EC50 to wild type EC50, NS3 D168V.
For data set [4], the system named is HCV 1b-con replicon cells. Description: Long-term (20 days, 6 passages) treatment of HCV replicon cells, HCV RNA by Real-Time RT PCR. It counts as cell-based, HCV genotype 1b. Particulars: from baseline, compounds at 10 times their EC50, mean ± SD. As for the experimental part: as §1
Both compounds were used at concentrations 10 times over their respective EC50 values. In brief, replicon cells (10^6 cells) were plated in a T75 flask in 15 mL of supplemented DMEM without G418. […] At each passage, cells were trypsinized, 10^6 cells were frozen in […] of RLT RNA lysis buffer (QIAGEN), and an additional 10^6 cells were seeded into another T75 flask with fresh medium and inhibitors. At the end of the assay, RNA was extracted from frozen replicon cells saved at the time of passage using QIAGEN RNeasy spin kit and was analyzed in a Real-Time RT PCR assay (Applied Biosystems).

The subject of data set [5] is 1b PI-luc replicon with NS3 protease mutation T54A. Format: cell-based, HCV genotype 1b. The note with it: ratio of mutant EC50 to wild type EC50, NS3 T54A.
Data set [6] concerns wild-type 1b Con-1 PI-Luc replicon. Description: Transient transfection replicon assay, wild type. It counts as cell-based, HCV genotype 1b. The note with it: Hepatitis C virus.
The test system of data set [7] is HCV genotype 1b replicon cells (Huh-luc). Description: EC50 determination in HCV genotype 1b Huh-luc replicon cells (luciferase). It counts as cell-based. The note with it: Hepatitis C virus, 72 h, 3 days, average ± standard deviation. As for the experimental part:
as §1
Replicon cells were seeded in 96-well plates at a density of 5×10^3 cells per well in 100 μL of DMEM culture medium, excluding G-418. Compounds 1 and 2 were serially diluted 1:3 in 100% DMSO (Sigma). These serial dilutions were added to the cells at a 1:200 dilution to achieve a final concentration of 0.5% DMSO in a total volume of 200 μL. […] HCV replication levels in drug-treated samples were expressed as a percentage of those in untreated controls (defined as 100%), and data were fit to the logistic dose response equation y=a/(1+(x/b)c) using XLFit4 software (IDBS, Emeryville, Calif.). EC50 values were calculated from the resulting equations as described previously (Delaney, W. E., et al., Antimicrobial Agents Chemotherapy, 45(6):1705-1713 (2001)).

Data set [8] deals with 1b PI-luc replicon with NS3 protease mutation R155K. Format: cell-based, HCV genotype 1b. The note with it: ratio of mutant EC50 to wild type EC50, NS3 R155K.
For data set [9], the system named is 1b Con-1 PI-Luc replicon with NS5B polymerase mutations C316Y/C445F/Y452H. Format: cell-based, HCV genotype 1b. The note with it: ratio of mutant EC50 to wild type EC50, NS5B C316Y/C445F/Y452H.
Data set [10] has as its system 1b Con-1 PI-Luc replicon with NS5B polymerase mutation Y448H. It counts as cell-based, HCV genotype 1b. The note with it: ratio of mutant EC50 to wild type EC50, NS5B Y448H.
The subject of data set [11] is 1b PI-luc replicon with NS3 protease mutation A156T. It counts as cell-based, HCV genotype 1b. Particulars: ratio of mutant EC50 to wild type EC50, NS3 A156T.
Data set [12] has as its system 1b PI-luc replicon with NS3 protease mutation V36M. It counts as cell-based, HCV genotype 1b. Particulars: ratio of mutant EC50 to wild type EC50, NS3 V36M.
Data set [13] concerns 1b Con-1 PI-Luc replicon with NS5B polymerase mutation M423T. Format: cell-based, HCV genotype 1b. Particulars: ratio of mutant EC50 to wild type EC50, NS5B M423T.
A short description of data set [14]: Multiple-dose pharmacokinetic interaction study in healthy subjects (Example 5). It counts as in vivo, human.
Setting [15] is: Table 4 (NS3 protease mutation study).
Setting [16] is: Compound 1 (40 mg BID) + Compound 2 (75 mg BID) / Compound 1 alone.
Where [17] appears, read: coadministration of Compound 2 (75 mg BID) with Compound 1 (40 mg BID) vs Compound 1 alone.

“And” between values parts separate entries of the source, which are not always exact repeats. Equal values may be shown once. Read-outs that look alike come from different tables or passages of the source. Some results are limits rather than exact numbers.

With `Fc1ccccc1-c1nc2ccn(Cc3ccc(-c4ccc(C(F)(F)F)cc4C(F)(F)F)nn3)cc-2n1` [Compound 1, 5-({6-[2,4-bis(trifluoromethyl)phenyl]pyridazin-3-yl}methyl)-2-(2-fluorophenyl)-5H-imidazo[4,5-c]pyridine], the “Fold Resistance D168E” value in data set [1] came out at 1.0 fold. In addition, in [2], the Interaction result was “Additive (Additive if volumes are >−50 nM^2 and ≦50 nM^2.)”. In data set [2] (mean ± SD), the “Antagonism Volume” value is recorded as 0.07 ± 0.07 nM^2 and the “Synergy Volume” value worked out at 13.5 ± 10.5 nM^2. Further, the “Fold Resistance D168V” value in [3] is 1.2 fold. Further, in data set [4], the “HCV RNA Change in Log10, Passage 5” value is −2.1 ± 0.5 Log10; the “HCV RNA Change in Log10, Passage 6” value is −2.3 Log10 and −2.4 ± 0.2 Log10. Also, the “Fold Resistance T54A” value in [5] is reported as 1.0 fold. In [6] (Table 3 (NS5B mutation study)), this molecule gave an EC50 of 1.5 nM. Further, the EC50 in data set [6] (setting [15]) was determined as 0.79 nM. Besides, the EC50 in [7] came to 3 ± 2 nM. Moreover, the “Fold Resistance R155K” value in data set [8] worked out at 0.9 fold. The “Fold Resistance C316Y/C445F/Y452H” value in [9] is reported as above 343 fold. Also, the “Fold Resistance Y448H” value in data set [10] was determined as 38.0 fold. In data set [11], the “Fold Resistance A156T” value stood at 0.6 fold. In addition, in data set [12], the “Fold Resistance V36M” value stood at 1.1 fold. The “Fold Resistance M423T” value in [13] worked out at 0.8 fold. In [14] (setting [16]), the “Compound 1 AUCtau, % Geometric Least Square Mean Ratio (90% CI)” value is given as 206.4 (185.1, 230.0) %; the “Compound 1 Cmax, % Geometric Least Square Mean Ratio (90% CI)” value is 185.2 (167.3, 205.0) %; the “Compound 1 Ctau, % Geometric Least Square Mean Ratio (90% CI)” value is 251.2 (219.5, 287.5) %. In data set [14] (setting [17]), the “increase in AUCtau of Compound 1” value was found to be 106%, the “increase in Cmax of Compound 1” value was determined as 85% and the “increase in Ctau of Compound 1” value was found to be 151%. Besides, in [14] (human, plasma, po, 40 mg), the AUC was found to be 43400 ng·h/mL, the Cmax worked out at 5040 ng/mL and the concentration at 12 h turned out to be 2570 ng/mL.
`COc1ccc2c(O[C@@H]3C[C@H]4C(=O)N[C@]5(P(=O)(O)Cc6c(F)cccc6F)C[C@H]5CCCCCCC[C@H](NC(=O)OC5CCCC5)C(=O)N4C3)cc(-c3csc(NC(C)C)n3)nc2c1Cl` [Compound 2]: the “Fold Resistance D168E” value in [1] is on record as 120.0 fold. Further, in data set [2], the Interaction result was “additive”. In addition, in [3], the “Fold Resistance D168V” value was determined as 1832.3 fold. The “HCV RNA Change in Log10, Passage 5” value in data set [4] is −2.9 ± 0.2 Log10. Also, the “HCV RNA Change in Log10, Passage 6” value in [4] is −3.1 Log10 and −3.1 ± 0.4 Log10. The “Fold Resistance T54A” value in [5] was found to be 0.6 fold. Moreover, the figures for the EC50 in [6] (Table 3 (NS5B mutation study)), in data set [6] (setting [15]) and in [7] were 50.7 nM, 21.4 nM and 11 ± 3 nM, respectively. The “Fold Resistance R155K” value in data set [8] is 566.3 fold. Further, the “Fold Resistance C316Y/C445F/Y452H” value in [9] is given as 2.1 fold. The “Fold Resistance Y448H” value in data set [10] is 1.0 fold. Also, the “Fold Resistance A156T” value in data set [11] was found to be 1882.4 fold. In addition, the “Fold Resistance V36M” value in data set [12] stood at 3.0 fold. For the same molecule, the “Fold Resistance M423T” value in [13] stood at 1.1 fold. For the same molecule, the peak concentration (Cmax) in data set [14] (plasma, human, oral, Compound 2 (75 mg BID) alone, Day 7, read-out: Compound 2 Cmax, Mean (% CV)) was found to be 4500 ng/mL. In addition, the concentration at 12 h in [14] (plasma, human, oral, Compound 2 (75 mg BID) alone, Day 7, read-out: Compound 2 Ctau, Mean (% CV)) came to 1550 ng/mL.

Usually EC50 stands for the concentration at which the effect is half-maximal. Read a low EC50 as greater potency. The AUC is concentration integrated over time. Low readings indicate less exposure, high ones more exposure. As usually defined, the Cmax is the highest concentration seen after dosing.
